The values below come from patent publication US5574043A, “Certain [1,2,5-thiadiazol-4-yl]-1-azabicyclo [3.2.1]octane derivatives and their pharmaceutical uses” (Novo Nordisk A/S, priority 1995, dated 1996).

This experiment has as its target muscarinic acetylcholine receptors. Nature of the experiment: Inhibition of specific binding of 3H-Oxotremorine-M (OXO BINDING) in vitro, rat cortex. Set-up: species or system male Wistar rats. Conditions: rat cortex homogenate, 3H-Oxotremorine 1.0 nM, 30 min at 25° C., pH 7.4. In outline:
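Washed male Wistar rat cortex membranes in 20 mM Hepes pH 7.4 incubated 30 min at 25° C with 1.0 nM ³H-Oxotremorine-M (final) and test compound; nonspecific binding with 1 μg/ml arecoline. Filtration and scintillation counting; IC50 (ng/ml) for specific binding calculated assuming mass-action kinetics.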
As to `CCCCCCOc1nsnc1C1(O)CN2CCC1CC2.O=C(O)C(=O)O` (stereo not shown) [Compound 7, 3-(3-Hexyloxy-1,2,5-thiadiazol-4-yl)-3-hydroxy-1-azabicyclo[2.2.2]octane oxalate], the “Inhibition in vitro OXO BINDING IC50” value came to 13 ng/mL.

Consider `Clc1nsnc1C1CN2CCC1CC2.O=C(O)C(=O)O` (stereo not shown) [Compound 8, 3-(3-Chloro-1,2,5-thiadiazol-4-yl)-1-azabicyclo[2.2.2]octane oxalate], for which the “Inhibition in vitro OXO BINDING IC50” value stood at 5.2 ng/mL.

With `CCOc1nsnc1C1CN2CCC1CC2.O=C(O)/C=C/C(=O)O` (stereo not shown) [Compound 9, 3-(3-Ethoxy-1,2,5-thiadiazol-4-yl)-1-azabicyclo[2.2.2]octane fumarate], the “Inhibition in vitro OXO BINDING IC50” value stood at 0.69 ng/mL.

Consider `CCCOc1nsnc1C1CN2CCC1CC2.O=C(O)/C=C/C(=O)O` (stereo not shown) [Compound 10, 3-(3-Propoxy-1,2,5-thiadiazol-4-yl)-1-azabicyclo[2.2.2]octane fumarate], for which the “Inhibition in vitro OXO BINDING IC50” value stood at 1.7 ng/mL.

As to `CCCCCCOc1nsnc1C1CN2CCC1CC2.O=C(O)/C=C/C(=O)O` (stereo not shown) [Compound 11, 3-(3-Hexyloxy-1,2,5-thiadiazol-4-yl)-1-azabicyclo[2.2.2]octane fumarate], the “Inhibition in vitro OXO BINDING IC50” value was 1.2 ng/mL.

On to `CCCCCSc1nsnc1C1CN2CCC1CC2.O=C(O)/C=C/C(=O)O` (stereo not shown) [Compound 12, 3-(3-Pentylthio-1,2,5-thiadiazol-4-yl)-1-azabicyclo[2.2.2]octane fumarate], for which the “Inhibition in vitro OXO BINDING IC50” value worked out at 0.45 ng/mL.

As to `CCCCSc1nsnc1C1CN2CCC1CC2.O=C(O)/C=C/C(=O)O` (stereo not shown) [Compound 13, 3-(3-Butylthio-1,2,5-thiadiazol-4-yl)-1-azabicyclo[2.2.2]octane fumarate], the “Inhibition in vitro OXO BINDING IC50” value stood at 0.65 ng/mL.

`CCCCCCSc1nsnc1C1CN2CCC1CC2.O=C(O)/C=C/C(=O)O` (stereo not shown) [Compound 14, 3-(3-Hexylthio-1,2,5-thiadiazol-4-yl)-1-azabicyclo[2.2.2]octane fumarate]: the “Inhibition in vitro OXO BINDING IC50” value is 4.8 ng/mL.

Regarding `CCOc1nsnc1C1=C(Cl)CC2CCC1N2.O=C(O)C(=O)O` (stereo not shown) [Compound 43, 3-Chloro-2-(3-ethoxy-1,2,5-thiadiazol-4-yl)-8-azabicyclo[3.2.1]oct-2-ene oxalate], the “Inhibition in vitro OXO BINDING IC50” value turned out to be 2.33 ng/mL.

For the molecule `O=C(O)/C=C/C(=O)O.c1ccc(CCCSc2nsnc2C2CN3CCC2CC3)cc1` (stereo not shown) [Compound 44, 3-(3-(3-Phenylpropylthio)-1,2,5-thiadiazol-4-yl)-1-azabicyclo[2.2.2]octane fumarate], the “Inhibition in vitro OXO BINDING IC50” value worked out at 4.7 ng/mL.

Turning to `N#Cc1ccc(CSc2nsnc2C2CN3CCC2CC3)cc1.O=C(O)C(=O)O` (stereo not shown) [Compound 45, 3-(3-(4-Cyanobenzylthio)-1,2,5-thiadiazol-4-yl)-1-azabicyclo[2.2.2]octane oxalate], the “Inhibition in vitro OXO BINDING IC50” value came to 1.6 ng/mL.

`CCCCOc1nsnc1C1CN2CCC1CC2.O=C(O)C(=O)O` (stereo not shown) [Compound 46, 3-(3-Butoxy-1,2,5-thiadiazol-4-yl)-1-azabicyclo[2.2.2]octane oxalate]: the “Inhibition in vitro OXO BINDING IC50” value is 0.56 ng/mL.

Take `ClC1=C(c2nsnc2Cl)C2CCC(C1)N2.O=C(O)C(=O)O` (stereo not shown) [Compound 47, 3-Chloro-2-(3-chloro-1,2,5-thiadiazol-4-yl)-8-azabicyclo[3.2.1]oct-2-ene oxalate]: the “Inhibition in vitro OXO BINDING IC50” value is > 300 ng/mL.

Take `C=CCCCCOc1nsnc1C1CN2CCC1CC2.O=C(O)/C=C/C(=O)O` (stereo not shown) [Compound 48, 3-(3-(5-Hexenyloxy)-1,2,5-thiadiazol-4-yl)-1-azabicyclo[2.2.2]octane fumarate]: the “Inhibition in vitro OXO BINDING IC50” value turned out to be 0.43 ng/mL.

Regarding `CCC=CCCOc1nsnc1C1CN2CCC1CC2.O=C(O)/C=C/C(=O)O` (stereo not shown) [Compound 49, 3-(3-(3-Hexenyloxy)-1,2,5-thiadiazol-4-yl)-1-azabicyclo[2.2.2]octane fumarate], the “Inhibition in vitro OXO BINDING IC50” value stood at 0.33 ng/mL.

Regarding `CCCCCOc1nsnc1C1CN2CCC1CC2.O=C(O)C(=O)O` (stereo not shown) [Compound 50, 3-(3-Pentyloxy-1,2,5-thiadiazol-4-yl)-1-azabicyclo[2.2.2]octane oxalate], the “Inhibition in vitro OXO BINDING IC50” value turned out to be 1.0 ng/mL.
